Measured values from US20240285642A1, “EGFR INHIBITOR FOR THE TREATMENT OF HEAD AND NECK CANCER” (NATCO PHARMA LIMITED, priority 2021, published 2024).
Like-named read-outs stand apart in the source and are kept apart here.

Columns and labels:
[1] = test system: recurrent squamous cell carcinoma of the head and neck; test: Phase I clinical study: tumour evaluation per RECIST 1.1; assay type: in vivo, human
Experimental: A Phase I clinical study was conducted to evaluate the safety, pharmacokinetics and anti-tumour activity of NRC-2694-A (NRC-2694 dihydrochloride) in patients with recurrent squamous cell carcinoma of the head and neck.
An open label, prospective, non-randomized, multicentre, dose escalation study was performed. The starting dose selected for this study was 100 mg/day and the maximum dose received was 500 mg/day. Eligible subjects were housed in a unit of the hospital for 12 days, beyond which patients who tolerated the drug were treated on out-patient (ambulatory) basis.
Tumour Evaluation: Change in the size of evaluable tumour from base line was evaluated as per RECIST criteria (version 1.1).

[2] = Phase I clinical study: safety, MTD and DLT; assay type: in vivo
Experimental: An open label, prospective, non-randomized, multicentre, dose escalation study was performed. The starting dose selected for this study was 100 mg/day and the maximum dose received was 500 mg/day.
Safety: Assessments were performed within 7 days before administration of study medication and subsequently on Days 12, 18, 24, 30, 45, 60, 75 and 90. However, for assessing the DLT and MTD first 30 day safety data was considered.

[3] = Phase I clinical study: plasma pharmacokinetics (LC-MS/MS); assay type: in vivo, human; settings: 100 mg/day to 500 mg/day
Experimental: Secondary: To evaluate the single and multiple dose pharmacokinetics and anti-tumour activity of NRC-2694-A. An open label, prospective, non-randomized, multicentre, dose escalation study was performed. The starting dose selected for this study was 100 mg/day and the maximum dose received was 500 mg/day. Eligible subjects were housed in a unit of the hospital for 12 days, beyond which patients who tolerated the drug were treated on out-patient (ambulatory) basis. Pharmacokinetic Evaluation: Estimation of NRC-2694 in plasma was done using a validated LC-MS/MS method. Based on the plasma concentration data, non-compartmental pharmacokinetic variables viz. area under the curve (AUC), peak plasma concentration (Cmax), time to peak plasma concentration (Tmax), and elimination rate constant, volume of distribution, half-life and clearance were calculated for single dose (on Day 1) as well as at steady state (on Day 12). Blood samples at pre-dose, 0.5, 1, 1.5, 2, 2.5, 3, 4, 6, 8, 12 and 24 hrs were collected in K2 EDTA prefilled vacutainers.

[4] = test system: recurrent and/or metastatic squamous cell carcinoma of the head and neck (R/M HNSCC); test: Phase II randomized study: efficacy (PFS, ORR, RECIST 1.1); assay type: in vivo, human
Description: Primary objective: The primary objective was to evaluate the efficacy of NRC-2694-A in combination with platinum plus paclitaxel regimen compared to platinum plus paclitaxel regimen alone in terms of progression free survival (PFS) in patients with recurrent and/or metastatic squamous cell carcinoma of the head and neck (R/M HNSCC).
Secondary objectives: The secondary objective was (a) to compare the objective response rate in patients with R/M HNSCC treated with NRC-2694-A in combination with platinum plus paclitaxel regimen compared to platinum plus paclitaxel regimen alone and (b) to compare the safety and tolerability of the two regimens.
The study was an open-label, prospective, randomized, active controlled, multicentric phase-II study of NRC-2694-A in patients with histologically/cytologically confirmed HNSCC with radiological progression (recurrence and/or metastasis).
Patients between 18 and 65 years of age with life expectancy≥3 months having recurrent and/or metastatic disease for whom cisplatin/carboplatin plus paclitaxel regimen was planned were eligible for the study. Those who fit all the inclusion and exclusion criteria were randomized to receive either chemotherapy+NRC-2694-A (study drug arm) or chemotherapy alone (control arm). • Arm-I (study drug arm): NRC-2694-A+cisplatin/carboplatin and paclitaxel • Arm-II (control arm): cisplatin/carboplatin and paclitaxel
During the study, 300 mg NRC-2694-A was administered once daily in the morning with or without food with 240 ml of water. The dose of cisplatin was 100 mg/m^2 of body surface area as intravenous infusion over an hour. Alternatively, the dose of carboplatin was based on the target area under the curve (AUC) equivalent to 5 mg/mL/min, as an infusion over 1 hour. The choice of platinum compound was per the investigator's discretion and was dependent on the type of platinum received during prior therapy, avoiding repetition. Paclitaxel was given at a dose of 175 mg/m^2 of body surface area as an infusion over 3 hours. • Monotherapy: After completion of 6 cycles of chemotherapy in control arm or in study drug arm, patients received 300 mg of NRC-2694-A once daily as a monotherapy.

[5] = test system: head and neck cancer cell line; settings: Parkinson et al 2007; cited from earlier work
R/M HNSCC = settings: cited from earlier work
[6] = Stage-II monotherapy, among the 4 patients with partial response in Stage-I

For C#Cc1cccc(Nc2ncnc3cc(OC)c(OCCCN4CCOCC4)cc23)c1.Cl.Cl [NRC-2694-A, N-(3-ethynylphenyl)-7-methoxy-6-(3-morpholinopropoxy) quinazolin-4-amine dihydrochloride], the “Outcome (tumour evaluation)” value ([1]; Subject No. 0202, Head and Neck, 120 days completed) was “Stable Disease”, the “Outcome (tumour evaluation)” value ([1]; Subject No. 0207, Head and Neck, 79 days completed) was “Stable Disease” and the “Outcome (tumour evaluation)” value ([1]; Subject No. 0211, Head and Neck, 120 days completed) was “Stable Disease”. The “Outcome (tumour evaluation)” value ([1]; Subject No. 0212, Head and Neck, 120 days completed) was “Partial Response”, the “Outcome (tumour evaluation)” value ([1]; Subject No. 0216, Head and Neck, 120 days completed) was “Stable Disease” and the “anti-tumour activity (effect on tumour size)” value ([1]; patients with recurrent squamous cell carcinoma of the head and neck, oral once daily) was “tumour size reduction or tumour size stasis”. For the same compound, the safety profile ([2]; once daily administration, Phase I) was “tolerable safety profile”, the “MTD (maximum tolerated dose)” value ([2]; oral once daily, dose escalation 100 to 500 mg/day, first 30 day safety data) was 400 mg/day and the “plasma concentration versus dose” value ([3]; Day-1 and Day-12 concentrations) was “dose dependent increase”. For the same compound, the “relationship of pharmacokinetics to dose” value ([3]; patients) was “Dose proportional relationship”, the “patients in whom complete response was maintained” value ([4]; Stage-II monotherapy 300 mg once daily, Arm-I patients with complete response in Stage-I) was 2 patients and the “patients continuing to have partial response” value [4, 6] was “one”. For the same compound, the “patients with progressive disease” value [4, 6] was 1 patients, the “patients with stable disease” value [4, 6] was 2 patients and the “patients continuing to have progressive disease” value ([4]; Stage-II monotherapy, patient with progressive disease in Stage-I) was 1 patients. The “patients achieving complete response” value ([4]; Stage-II monotherapy, patients from Arm-II with partial response and stable disease earlier) was 2 patients and the “patients continuing to have stable disease” value ([4]; Stage-II monotherapy, patients with stable disease in Stage-I) was “Two”.

For C#Cc1cccc(Nc2ncnc3cc(OC)c(OCCCN4CCOCC4)cc23)c1 [NRC-2694, (3-Ethynyl-phenyl)-[7-methoxy-6-(3-morpholin-4-yl-propoxy)-quinazolin-4-yl]-amine], the “inhibition of growth of a head and neck cancer cell line grafted into athymic female mice” value [5] is listed as “low to moderate inhibition”.

For “Pembrolizumab: approved monoclonal antibody, immunotherapy for R/M HNSCC”, the ORR (R/M HNSCC; Pembrolizumab alone, CPS>20 population) is given as 26% and the ORR (R/M HNSCC; combination of Pembrolizumab and platinum-based chemotherapy) is given as 36%.
